Measurements taken from ChEMBL document CHEMBL1135518 (J Med Chem, 2002).

System: Rattus norvegicus
Experiment: The increase in the extracellular levels of DOPAC in the rat ventral hippocampus at a dose of 5.0 mg/kg sc measured by in vivo microdialysis
Assay type: functional
Conditions: route subcutaneous

COc1cccc2c1N1CCN(C)CC1c1ccccc1C2 (racemic)
Increase: 160%
